# Key:
# [1] = system: spinal nerve ligation model of neuropathic pain, mechanical hyperalgesia; assay: Spinal nerve ligation model of neuropathic pain, mechanical hyperalgesia; assay type: in vivo; settings: rat
# Method: 1-[2-dimethylamino-1-(4-phenol)ethyl]-cis-1,4-cyclohexandiol was dissolved in sterile saline and administered orally (p.o.) at dosages of 10 mg/kg, 30 mg/kg and 100 mg/kg. Gabapentin was purchased from Toronto Research Chemicals (Ontario, Canada) and suspended in 2% Tween 80 in 0.5% methylcellulose and administered intraperitoneally (i.p.).
# For the visceral pain study male CD-1 mice (20-25 g, Charles River; Kingston/Stoneridge, NY) were housed in groups of 5/cage on bedding and for the neuropathic study male Sprague-Dawley rats (125-150 g, Harlan; Indianapolis, Ind.) were housed 3/cage on bedding. For all studies animals were maintained in climate-controlled rooms on a 12-hour light/dark cycle (lights on at 0630) with food and water available ad libitum.
# Surgical procedures were performed under 4% isoflurane/O2 anesthesia, delivered via nose cone and maintained at 2.5% for the duration of the surgery. After induction of anesthesia, the incision site was shaved and prepared in a sterile manner. […]
# For the neuropathic model statistical significance was determined using a repeated measure ANOVA using a customized SAS-excel application (SAS Institute, Cary, N.C.). Significant main effects were analyzed further by subsequent least significant difference analysis. […]
# Assessment of mechanical hyperalgesia thresholds were measured as the hind paw withdrawal threshold to a noxious mechanical stimulus and was determined using the paw pressure technique [Randall, L. O. and Selitto, J. J., A method for measurement of analgesic activity on inflamed tissue, Arch. […] Thresholds were evaluated prior to surgery and reassessed three weeks after SNL surgery. On test day, rats were administered vehicle or test compound mechanical thresholds assessed 1, 3, 5 and 24 hr after administration (n=10/group).
# Dopamine Transporter = assay: Dopamine transporter binding assay; settings: Test Compound @ 10 1 M
# [2] = In vitro metabolism in hepatic microsomes, human; assay type: in vitro ADME; settings: both sexes, mixed male and female humans, read-out: t1/2 in hepatic microsomes
# Method: In vitro metabolism of 1-[2-dimethylamino-1-(4-phenol)ethyl]-cis-1,4-cyclohexandiol was conducted in the hepatic microsomes of Sprague-Dawley rats, male dogs, male monkeys and mixed male and female humans to characterize metabolic stability and identification of metabolites. 1-[2-dimethylamino-1-(4-phenol)ethyl]-cis-1,4-cyclohexandiol was stable (t1/2>60 minutes) in hepatic microsomes indicating Phase I and II metabolism was minimal in all species.
# Adenosine A2A (hr) = Adenosine A2A (hr) (Homo sapiens, UniProt P29274); assay: Receptor binding assay: Adenosine A2A; settings: Test Compound @ 10 1 M
# Sequence of Adenosine A2A (hr) (P29274 whole entry): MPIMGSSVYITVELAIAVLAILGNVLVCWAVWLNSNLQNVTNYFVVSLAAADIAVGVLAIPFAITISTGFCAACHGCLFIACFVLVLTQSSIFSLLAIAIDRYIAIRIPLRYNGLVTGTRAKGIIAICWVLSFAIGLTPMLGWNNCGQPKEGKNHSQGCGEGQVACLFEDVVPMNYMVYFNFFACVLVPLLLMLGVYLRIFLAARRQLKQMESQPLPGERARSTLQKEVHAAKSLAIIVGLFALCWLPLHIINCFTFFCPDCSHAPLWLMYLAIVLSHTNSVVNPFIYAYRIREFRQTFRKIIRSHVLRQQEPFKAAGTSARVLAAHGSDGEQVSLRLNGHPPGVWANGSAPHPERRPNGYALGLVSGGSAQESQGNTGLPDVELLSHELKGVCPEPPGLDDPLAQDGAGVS
# pH-Solubility = assay type: physicochemical; settings: free base
# Muscarinic, MS (hr) = target: T1, Muscarinic, MS (hr) (Homo sapiens, UniProt P08912); assay: Receptor binding assay: Muscarinic MS; settings: Test Compound @ 10 1 M
# T1 construct: Novascreen (contract assay)
# T1 sequence (P08912 whole entry): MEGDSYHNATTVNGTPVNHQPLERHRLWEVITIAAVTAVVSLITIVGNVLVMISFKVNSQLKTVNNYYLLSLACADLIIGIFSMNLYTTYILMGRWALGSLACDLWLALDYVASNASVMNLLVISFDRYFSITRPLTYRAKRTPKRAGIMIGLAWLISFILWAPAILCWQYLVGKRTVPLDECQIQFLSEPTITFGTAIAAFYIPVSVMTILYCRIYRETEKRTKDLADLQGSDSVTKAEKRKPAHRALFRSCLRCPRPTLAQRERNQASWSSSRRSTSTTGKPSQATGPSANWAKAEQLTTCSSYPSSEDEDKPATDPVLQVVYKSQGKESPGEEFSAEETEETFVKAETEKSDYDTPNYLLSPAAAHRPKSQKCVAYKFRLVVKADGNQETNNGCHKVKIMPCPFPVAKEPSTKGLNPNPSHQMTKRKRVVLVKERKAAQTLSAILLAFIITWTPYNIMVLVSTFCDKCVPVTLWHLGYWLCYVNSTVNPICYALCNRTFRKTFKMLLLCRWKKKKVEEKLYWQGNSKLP
# Opiate, Kappa (hr) = target: T2, Opiate, Kappa (hr) (Homo sapiens, UniProt P41145); assay: Receptor binding assay: Opiate Kappa; settings: Test Compound @ 10 1 M
# T2 construct: Novascreen (contract assay)
# T2 sequence (P41145 whole entry): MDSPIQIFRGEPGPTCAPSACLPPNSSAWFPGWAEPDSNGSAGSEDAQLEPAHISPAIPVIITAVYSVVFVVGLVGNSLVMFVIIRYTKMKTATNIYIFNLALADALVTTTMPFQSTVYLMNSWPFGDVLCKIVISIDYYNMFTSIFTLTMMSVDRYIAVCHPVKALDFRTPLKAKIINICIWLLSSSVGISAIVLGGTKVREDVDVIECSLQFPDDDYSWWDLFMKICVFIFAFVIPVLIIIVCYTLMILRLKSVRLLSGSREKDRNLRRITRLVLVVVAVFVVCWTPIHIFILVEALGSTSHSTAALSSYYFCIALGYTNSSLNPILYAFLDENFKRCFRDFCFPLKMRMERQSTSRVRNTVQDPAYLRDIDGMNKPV
# Sigma 2 = assay: Receptor binding assay: Sigma 2; settings: Test Compound @ 10 1 M
# Muscarinic, M1 (hr) = target: T3, Muscarinic, M1 (hr) (Homo sapiens, UniProt P11229); assay: Receptor binding assay: Muscarinic M1; settings: Test Compound @ 10 1 M
# T3 construct: Novascreen (contract assay)
# T3 sequence (P11229 whole entry): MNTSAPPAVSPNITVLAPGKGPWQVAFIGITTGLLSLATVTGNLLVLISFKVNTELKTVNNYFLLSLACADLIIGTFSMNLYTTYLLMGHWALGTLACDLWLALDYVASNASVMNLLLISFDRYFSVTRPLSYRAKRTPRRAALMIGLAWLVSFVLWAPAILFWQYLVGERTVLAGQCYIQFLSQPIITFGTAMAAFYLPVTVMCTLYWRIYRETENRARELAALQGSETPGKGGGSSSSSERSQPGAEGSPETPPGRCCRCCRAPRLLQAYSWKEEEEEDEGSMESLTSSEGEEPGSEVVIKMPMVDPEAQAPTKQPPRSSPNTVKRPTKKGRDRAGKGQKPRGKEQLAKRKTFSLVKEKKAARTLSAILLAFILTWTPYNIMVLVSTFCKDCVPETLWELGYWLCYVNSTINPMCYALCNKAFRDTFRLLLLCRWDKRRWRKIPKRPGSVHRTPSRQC
# Serotonin, 5HT1D (h) = target: T4, Serotonin, 5HT1D (h) (Homo sapiens, UniProt P28221); assay: Receptor binding assay: Serotonin 5HT1D; settings: Test Compound @ 10 1 M
# T4 construct: Novascreen (contract assay)
# T4 sequence (P28221 whole entry): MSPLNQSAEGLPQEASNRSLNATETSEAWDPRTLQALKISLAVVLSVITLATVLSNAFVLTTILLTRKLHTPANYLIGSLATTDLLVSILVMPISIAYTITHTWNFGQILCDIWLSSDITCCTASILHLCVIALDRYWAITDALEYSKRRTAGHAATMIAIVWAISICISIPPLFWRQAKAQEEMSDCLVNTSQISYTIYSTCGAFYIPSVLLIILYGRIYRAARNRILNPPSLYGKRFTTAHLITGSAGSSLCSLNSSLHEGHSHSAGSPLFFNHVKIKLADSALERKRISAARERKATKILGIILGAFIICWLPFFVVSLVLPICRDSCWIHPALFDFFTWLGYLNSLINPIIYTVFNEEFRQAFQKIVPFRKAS
# Serotonin, 5HT2A (h) = target: T5, Serotonin, 5HT2A (h) (Homo sapiens, UniProt P28223); assay: Receptor binding assay: Serotonin 5HT2A; settings: Test Compound @ 10 1 M
# T5 construct: Novascreen (contract assay)
# T5 sequence (P28223 whole entry): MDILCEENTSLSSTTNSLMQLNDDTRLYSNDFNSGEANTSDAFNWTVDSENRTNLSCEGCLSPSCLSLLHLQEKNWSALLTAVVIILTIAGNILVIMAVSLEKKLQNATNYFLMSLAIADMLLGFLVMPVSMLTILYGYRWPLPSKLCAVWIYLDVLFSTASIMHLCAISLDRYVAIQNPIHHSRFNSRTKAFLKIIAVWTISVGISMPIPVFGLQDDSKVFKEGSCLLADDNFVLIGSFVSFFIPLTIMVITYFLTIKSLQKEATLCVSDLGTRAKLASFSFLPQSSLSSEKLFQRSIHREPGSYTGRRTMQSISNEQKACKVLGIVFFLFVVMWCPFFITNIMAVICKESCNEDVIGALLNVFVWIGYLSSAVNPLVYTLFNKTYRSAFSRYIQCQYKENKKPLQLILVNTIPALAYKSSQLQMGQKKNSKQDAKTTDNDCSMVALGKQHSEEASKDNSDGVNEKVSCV
# Serotonin Transporter = target: T6, Serotonin Transporter (Homo sapiens, UniProt P31645); assay: Serotonin transporter (human) binding assay
# T6 construct: Novascreen (contract assay)
# T6 sequence (P31645 whole entry): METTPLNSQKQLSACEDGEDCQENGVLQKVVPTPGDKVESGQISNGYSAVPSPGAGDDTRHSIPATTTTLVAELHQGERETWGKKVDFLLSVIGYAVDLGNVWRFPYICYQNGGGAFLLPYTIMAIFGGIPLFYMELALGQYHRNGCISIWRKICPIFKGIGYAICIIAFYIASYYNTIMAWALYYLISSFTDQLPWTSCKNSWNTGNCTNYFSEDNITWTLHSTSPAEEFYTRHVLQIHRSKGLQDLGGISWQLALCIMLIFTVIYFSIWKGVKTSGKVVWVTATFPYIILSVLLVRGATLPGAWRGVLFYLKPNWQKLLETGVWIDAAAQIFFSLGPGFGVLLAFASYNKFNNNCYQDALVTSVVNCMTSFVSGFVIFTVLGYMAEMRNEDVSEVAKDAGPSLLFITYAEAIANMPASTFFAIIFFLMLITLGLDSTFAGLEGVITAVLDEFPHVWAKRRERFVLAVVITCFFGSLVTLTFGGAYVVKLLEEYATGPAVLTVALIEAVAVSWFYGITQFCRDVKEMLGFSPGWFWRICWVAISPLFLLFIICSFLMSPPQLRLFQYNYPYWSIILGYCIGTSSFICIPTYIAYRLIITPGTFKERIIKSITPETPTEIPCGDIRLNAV
# Histamine, H3 = assay: Receptor binding assay: Histamine H3; settings: Test Compound @ 10 1 M
# Serotonin, 5HT3 (hr) = target: T7, Serotonin, 5HT3 (hr) (Homo sapiens, UniProt P46098); assay: Receptor binding assay: Serotonin 5HT3; settings: Test Compound @ 10 1 M
# T7 construct: Novascreen (contract assay)
# [3] = target: T8, Benzodiazepine, peripheral (h) (Homo sapiens, UniProt P30536); assay: Receptor binding assay: Benzodiazepine peripheral; settings: Test Compound @ 10 1 M
# T8 construct: Novascreen (assay provider)
# T8 sequence (P30536 whole entry): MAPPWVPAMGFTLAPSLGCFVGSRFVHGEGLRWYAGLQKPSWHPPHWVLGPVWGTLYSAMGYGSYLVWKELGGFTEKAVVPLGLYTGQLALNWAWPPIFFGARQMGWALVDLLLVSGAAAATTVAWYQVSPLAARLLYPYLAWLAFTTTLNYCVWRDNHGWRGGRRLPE
# GABA A, Agonist site = assay: Receptor binding assay: GABA A agonist site; settings: Test Compound @ 10 1 M
# Serotonin, 5HT1A (hr) = target: T9, Serotonin, 5HT1A (hr) (Homo sapiens, UniProt P08908); assay: Receptor binding assay: Serotonin 5HT1A; settings: Test Compound @ 10 1 M
# T9 construct: Novascreen (contract assay)
# T9 sequence (P08908 whole entry): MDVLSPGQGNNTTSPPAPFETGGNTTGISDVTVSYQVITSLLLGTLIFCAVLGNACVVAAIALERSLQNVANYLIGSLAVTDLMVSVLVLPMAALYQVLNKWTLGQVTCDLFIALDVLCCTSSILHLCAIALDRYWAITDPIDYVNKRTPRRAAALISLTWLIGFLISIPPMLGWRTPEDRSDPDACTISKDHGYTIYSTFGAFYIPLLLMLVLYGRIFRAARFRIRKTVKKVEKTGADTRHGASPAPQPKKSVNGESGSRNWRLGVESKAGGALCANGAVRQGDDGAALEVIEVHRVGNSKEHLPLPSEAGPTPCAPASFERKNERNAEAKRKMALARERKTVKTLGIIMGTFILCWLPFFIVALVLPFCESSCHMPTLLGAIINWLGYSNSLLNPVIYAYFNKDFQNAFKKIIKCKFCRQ
# [4] = system: Serotonin, 5HT1, non-selective; assay: Receptor binding assay: Serotonin 5HT1 non-selective; settings: Test Compound @ 10 1 M
# Opiate, Mu (hr) = target: T10, Opiate, Mu (hr) (Homo sapiens, UniProt P35372); assay: Receptor binding assay: Opiate Mu; settings: Test Compound @ 10 1 M
# T10 construct: Novascreen (contract assay)
# T10 sequence (P35372 whole entry): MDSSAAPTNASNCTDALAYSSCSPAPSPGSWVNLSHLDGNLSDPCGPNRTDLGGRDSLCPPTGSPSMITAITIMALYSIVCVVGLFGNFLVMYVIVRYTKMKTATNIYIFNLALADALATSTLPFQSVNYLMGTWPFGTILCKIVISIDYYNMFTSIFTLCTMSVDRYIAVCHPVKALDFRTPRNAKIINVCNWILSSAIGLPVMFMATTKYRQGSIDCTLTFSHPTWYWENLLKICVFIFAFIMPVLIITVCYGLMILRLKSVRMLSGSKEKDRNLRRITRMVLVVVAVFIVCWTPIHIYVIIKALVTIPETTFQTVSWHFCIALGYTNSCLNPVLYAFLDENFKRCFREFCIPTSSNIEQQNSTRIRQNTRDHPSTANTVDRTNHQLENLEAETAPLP
# Opiate, Delta 2 (hr) = target: T11, Opiate, Delta 2 (hr) (Homo sapiens, UniProt P41143); assay: Receptor binding assay: Opiate Delta 2; settings: Test Compound @ 10 1 M
# T11 construct: Novascreen (contract assay)
# Muscarinic, M2 (hr) = target: T12, Muscarinic, M2 (hr) (Homo sapiens, UniProt P08172); assay: Receptor binding assay: Muscarinic M2; settings: Test Compound @ 10 1 M
# T12 construct: Novascreen (contract assay)
# T12 sequence (P08172 whole entry): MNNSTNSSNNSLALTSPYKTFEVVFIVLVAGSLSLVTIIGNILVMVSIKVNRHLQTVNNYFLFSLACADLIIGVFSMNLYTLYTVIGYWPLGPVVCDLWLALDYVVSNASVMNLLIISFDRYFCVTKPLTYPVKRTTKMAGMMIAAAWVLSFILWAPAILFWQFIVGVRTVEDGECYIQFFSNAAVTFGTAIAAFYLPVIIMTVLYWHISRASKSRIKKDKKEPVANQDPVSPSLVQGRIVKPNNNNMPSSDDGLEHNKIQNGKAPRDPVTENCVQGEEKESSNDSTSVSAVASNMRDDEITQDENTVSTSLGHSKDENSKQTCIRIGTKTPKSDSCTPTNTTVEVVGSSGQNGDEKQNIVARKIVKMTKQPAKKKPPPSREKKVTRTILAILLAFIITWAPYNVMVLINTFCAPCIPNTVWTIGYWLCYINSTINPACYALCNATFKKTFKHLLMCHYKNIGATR
# Hygroscopicity = assay type: physicochemical
# Glutamate, NMDA Glycine = assay: Receptor binding assay: Glutamate NMDA Glycine; settings: Test Compound @ 10 1 M
# Adrenergic, Alpha 2B = assay: Receptor binding assay: Adrenergic Alpha 2B; settings: Test Compound @ 10 1 M
smiles,measurement,setting,value
"CN(C)CC(c1ccc(O)cc1)C1(O)CCC(O)CC1 (stereo not drawn) [1-[2-dimethylamino-1-(4-phenol)ethyl]-cis-1,4-cyclohexandiol]",effect versus the SNL/vehicle,[1]; 10 and 30 mg/kg,positive trend
same,"MED, reversal of mechanical hyperalgesia","[1]; spinal nerve ligation, p.o.",10 mg/kg
same,reversal of mechanical hyperalgesia,"[1]; spinal nerve ligation, p.o.",statistically significant reversal
same,Receptor Binding % Inhibition,Dopamine Transporter,8.49%
same,half-life,[2],> 60 min
same,Receptor Binding % Inhibition,Adenosine A2A (hr),7.68%
same,pH-Solubility,pH-Solubility; Final pH 1.4,Final pH 1.4 24.2 mg/ml
same,pH-Solubility,pH-Solubility; Final pH 3.99,Final pH 3.99 24.1 mg/ml
same,pH-Solubility,pH-Solubility; Final pH 5.79,Final pH 5.79 26.7 mg/ml
same,pH-Solubility,pH-Solubility; Final pH 8.4,Final pH 8.4 22.7 mg/ml
same,inhibition at 10 µM,"Muscarinic, MS (hr)",5.4%
same,inhibition at 10 µM,"Opiate, Kappa (hr)",-4.17%
same,Receptor Binding % Inhibition,Sigma 2,1.00%
same,inhibition at 10 µM,"Muscarinic, M1 (hr)",-5.96%
same,inhibition at 10 µM,"Serotonin, 5HT1D (h)",7.26%
same,inhibition at 10 µM,"Serotonin, 5HT2A (h)",3.7%
same,inhibition at 10 µM,"Serotonin Transporter; Serotonin Transporter, Test Compound @ 10 1 M, read-out: Receptor Binding % Inhibition",94.5%
same,serotonin reuptake inhibition activity,Serotonin Transporter; interpretation of the binding data in words,very good
same,Receptor Binding % Inhibition,"Histamine, H3",14.00%
same,inhibition at 10 µM,"Serotonin, 5HT3 (hr)",9.72%
same,inhibition at 10 µM,[3],1.65%
same,Receptor Binding % Inhibition,"GABA A, Agonist site",−16.06%
same,inhibition at 10 µM,"Serotonin, 5HT1A (hr)",1.8%
same,Receptor Binding % Inhibition,[4],5.09%
same,inhibition at 10 µM,"Opiate, Mu (hr)",-0.35%
same,inhibition at 10 µM,"Opiate, Delta 2 (hr)",12.2%
same,inhibition at 10 µM,"Muscarinic, M2 (hr)",12%
same,Hygroscopicity,Hygroscopicity,Non-hygroscopic
same,"Hygroscopicity, weight gain","Hygroscopicity; at 26.30C/90% RH, weight gain is lost upon reduction in % RH",< 2%
same,Receptor Binding % Inhibition,"Glutamate, NMDA Glycine",2.24%
same,Receptor Binding % Inhibition,"Adrenergic, Alpha 2B",8.60%

# Source: patent publication US20070015828A1 (Wyeth, priority 2005, published 2007)
